Data reported in ChEMBL document CHEMBL1201862, “PubChem BioAssay data set” (2004).
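Cells were grown in 96-well plates and exposed to each compound for 48 hours at five concentrations; endpoints were interpolated linearly between bracketing concentrations, or set to the highest concentration if not reached. At the GI50, growth is halved.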 Active and inactive are the calls of the source. Rule as the data show it: active = GI50 up to about 1.1 µM and inactive = higher.

Key:
Assay in all cases: growth of human tumour cells (NCI), 48 h
UO-31 = system: UO-31
COLO 205 = system: COLO 205
DLD-1 = system: DLD-1
HOP-92 = system: HOP-92
XF498 = system: XF498
Malme-3M = system: Malme-3M
M19-MEL = system: M19-MEL
IGROV-1 = system: IGROV-1
HCT-15 = system: HCT-15
OVCAR-3 = system: OVCAR-3
HT-29 = system: HT-29
UACC-62 = system: UACC-62
KM-20L2 = system: KM-20L2
U-251 = system: U-251
SW-620 = system: SW-620
A498 = system: A498
NCI-H23 = system: NCI-H23
EKVX = system: EKVX
UACC-257 = system: UACC-257
HL-60 = system: HL-60
SF-295 = system: SF-295
SK-OV-3 = system: SK-OV-3
OVCAR-4 = system: OVCAR-4
DMS-273 = system: DMS-273
A549 = system: A549
HOP-62 = system: HOP-62
LOX IMVI = system: LOX IMVI
HCC 2998 = system: HCC 2998
HCT-116 = system: HCT-116
MOLT-4 = system: MOLT-4
SN12C = system: SN12C
SNB-78 = system: SNB-78
RXF 393 = system: RXF 393
SNB-19 = system: SNB-19
OVCAR-5 = system: OVCAR-5
KM12 = system: KM12
SK-MEL-5 = system: SK-MEL-5
RPMI-8226 = system: RPMI-8226
OVCAR-8 = system: OVCAR-8
SF-268 = system: SF-268
DMS-114 = system: DMS-114
SK-MEL-28 = system: SK-MEL-28
NCI/ADR-RES = system: NCI/ADR-RES
NCI-H460 = system: NCI-H460
MCF7 = system: MCF7
HOP-18 = system: HOP-18
SNB-75 = system: SNB-75
SF-539 = system: SF-539
K562 = system: K562
CCRF-CEM = system: CCRF-CEM
NCI-H226 = system: NCI-H226
SK-MEL-2 = system: SK-MEL-2
NCI-H522 = system: NCI-H522
SR = system: SR
ACHN = system: ACHN
CAKI-1 = system: CAKI-1
M14 = system: M14
786-0 = system: 786-0
LXFL 529 = system: LXFL 529
TK-10 = system: TK-10

CN(C)CCNC(=O)c1cccc2c1Nc1ccccc1S2
GI50 (UO-31): 10.1 µM (inactive)
GI50 (COLO 205): 11.8 µM (inactive)
GI50 (DLD-1): 15.6 µM (inactive)
GI50 (HOP-92): 2.08 µM (inactive)
GI50 (XF498): 12.6 µM (inactive)
GI50 (Malme-3M): 14.8 µM (inactive)
GI50 (M19-MEL): 15.6 µM (inactive)
GI50 (IGROV-1): 11.3 µM (inactive)
GI50 (HCT-15): 16 µM
GI50 (OVCAR-3): 14.5 µM (inactive)
GI50 (HT-29): 11.7 µM (inactive)
GI50 (UACC-62): 14.6 µM (inactive)
GI50 (KM-20L2): 16.2 µM (inactive)
GI50 (U-251): 13.7 µM (inactive)
GI50 (SW-620): 16.7 µM (inactive)
GI50 (A498): 10.6 µM (inactive)
GI50 (NCI-H23): 14.6 µM (inactive)
GI50 (EKVX): 5.45 µM (inactive)
GI50 (UACC-257): 13.7 µM (inactive)
GI50 (HL-60): 5 µM (inactive)
GI50 (SF-295): 14.5 µM (inactive)
GI50 (SK-OV-3): 16.1 µM (inactive)
GI50 (OVCAR-4): 13.4 µM (inactive)
GI50 (DMS-273): 13.7 µM (inactive)
GI50 (A549): 14.7 µM (inactive)
GI50 (HOP-62): 15.7 µM (inactive)
GI50 (LOX IMVI): 12.2 µM (inactive)
GI50 (HCC 2998): 13.9 µM (inactive)
GI50 (HCT-116): 12.2 µM (inactive)
GI50 (MOLT-4): 10.6 µM (inactive)
GI50 (SN12C): 13 µM (inactive)
GI50 (SNB-78): 12.2 µM (inactive)
GI50 (RXF 393): 9.35 µM (inactive)
GI50 (SNB-19): 9.75 µM (inactive)
GI50 (OVCAR-5): 13.4 µM (inactive)
GI50 (KM12): 12.7 µM (inactive)
GI50 (SK-MEL-5): 13.2 µM (inactive)
GI50 (RPMI-8226): 9.57 µM (inactive)
GI50 (OVCAR-8): 15.8 µM (inactive)
GI50 (SF-268): 15.8 µM (inactive)
GI50 (DMS-114): 6.76 µM (inactive)
GI50 (SK-MEL-28): 14.4 µM (inactive)
GI50 (NCI/ADR-RES): 16.2 µM (inactive)
GI50 (NCI-H460): 11.2 µM (inactive)
GI50 (MCF7): 13 µM (inactive)
GI50 (HOP-18): 11.9 µM (inactive)
GI50 (SNB-75): 6.81 µM (inactive)
GI50 (SF-539): 15.2 µM (inactive)
GI50 (K562): 14.9 µM (inactive)
GI50 (CCRF-CEM): 12.4 µM (inactive)
GI50 (NCI-H226): 11.5 µM (inactive)
GI50 (SK-MEL-2): 16.3 µM (inactive)

COc1ccccc1/N=C(\N)N/N=C/c1c[nH]c2ccccc12
GI50 (UO-31): 13.3 µM (inactive)
GI50 (COLO 205): 1.67 µM (inactive)
GI50 (NCI-H522): 3.65 µM (inactive)
GI50 (SR): 5.01 µM (inactive)
GI50 (ACHN): 10.3 µM (inactive)
GI50 (DLD-1): 13.8 µM (inactive)
GI50 (XF498): 4.42 µM (inactive)
GI50 (Malme-3M): 2.58 µM (inactive)
GI50 (CAKI-1): 13.3 µM (inactive)
GI50 (M14): 3.25 µM (inactive)
GI50 (M19-MEL): 11.1 µM (inactive)
GI50 (IGROV-1): 11 µM (inactive)
GI50 (HCT-15): 4.2 µM
GI50 (OVCAR-3): 12.2 µM (inactive)
GI50 (HT-29): 4.01 µM (inactive)
GI50 (786-0): 13.3 µM (inactive)
GI50 (UACC-62): 11.5 µM (inactive)
GI50 (KM-20L2): 13.3 µM (inactive)
GI50 (U-251): 11.6 µM (inactive)
GI50 (SW-620): 2.72 µM (inactive)
GI50 (NCI-H23): 4.79 µM (inactive)
GI50 (EKVX): 11 µM (inactive)
GI50 (UACC-257): 2.39 µM (inactive)
GI50 (HL-60): 7.29 µM (inactive)
GI50 (SF-295): 8.97 µM (inactive)
GI50 (SK-OV-3): 15.6 µM (inactive)
GI50 (OVCAR-4): 16.8 µM (inactive)
GI50 (A549): 13.2 µM (inactive)
GI50 (HOP-62): 16.3 µM (inactive)
GI50 (LOX IMVI): 10.4 µM (inactive)
GI50 (HCC 2998): 2.55 µM (inactive)
GI50 (HCT-116): 6.81 µM (inactive)
GI50 (MOLT-4): 3.13 µM (inactive)
GI50 (SN12C): 10.4 µM (inactive)
GI50 (SNB-78): 6.85 µM (inactive)
GI50 (RXF 393): 14.1 µM (inactive)
GI50 (SNB-19): 15.3 µM (inactive)
GI50 (OVCAR-5): 13.9 µM (inactive)
GI50 (KM12): 14.9 µM (inactive)
GI50 (SK-MEL-5): 2.78 µM (inactive)
GI50 (RPMI-8226): 3.13 µM (inactive)
GI50 (OVCAR-8): 13 µM (inactive)
GI50 (SF-268): 14.2 µM (inactive)
GI50 (DMS-114): 3.39 µM (inactive)
GI50 (SK-MEL-28): 3.57 µM (inactive)
GI50 (NCI-H460): 8.87 µM (inactive)
GI50 (LXFL 529): 2.23 µM (inactive)
GI50 (HOP-18): 18.6 µM (inactive)
GI50 (SNB-75): 12.3 µM (inactive)
GI50 (SF-539): 13.5 µM (inactive)
GI50 (TK-10): 16.8 µM (inactive)
GI50 (K562): 2.22 µM (inactive)
GI50 (CCRF-CEM): 5.93 µM (inactive)
GI50 (NCI-H226): 14.4 µM (inactive)
GI50 (SK-MEL-2): 6.46 µM (inactive)

O=C1C(Cl)C(c2ccc([N+](=O)[O-])cc2)N1n1cnc2ccccc2c1=O (centres undefined)
GI50 (UO-31): 71 µM (inactive)
GI50 (COLO 205): > 100 µM (inactive)
GI50 (NCI-H522): 49.8 µM (inactive)
GI50 (ACHN): 61.5 µM (inactive)
GI50 (DLD-1): 53.1 µM (inactive)
GI50 (XF498): 64.9 µM (inactive)
GI50 (Malme-3M): > 100 µM (inactive)
GI50 (CAKI-1): 60.1 µM (inactive)
GI50 (M14): 32.3 µM (inactive)
GI50 (IGROV-1): 75.5 µM (inactive)
GI50 (HCT-15): > 100 µM
GI50 (OVCAR-3): 52.4 µM (inactive)
GI50 (HT-29): > 100 µM (inactive)
GI50 (786-0): 20.7 µM (inactive)
GI50 (UACC-62): 70.5 µM (inactive)
GI50 (KM-20L2): > 100 µM (inactive)
GI50 (U-251): 47.8 µM (inactive)
GI50 (SW-620): 97.7 µM (inactive)
GI50 (NCI-H23): 32.6 µM (inactive)
GI50 (EKVX): 12.7 µM (inactive)
GI50 (UACC-257): > 100 µM (inactive)
GI50 (SF-295): 17.6 µM (inactive)
GI50 (SK-OV-3): 9.75 µM (inactive)
GI50 (OVCAR-4): 5.64 µM (inactive)
GI50 (DMS-273): 34.5 µM (inactive)
GI50 (A549): 30.7 µM (inactive)
GI50 (HOP-62): 34.5 µM (inactive)
GI50 (LOX IMVI): 87.1 µM (inactive)
GI50 (HCC 2998): 73.6 µM (inactive)
GI50 (HCT-116): 43.9 µM (inactive)
GI50 (MOLT-4): 49.1 µM (inactive)
GI50 (SN12C): 42.3 µM (inactive)
GI50 (SNB-78): 24.1 µM (inactive)
GI50 (RXF 393): 23.6 µM (inactive)
GI50 (SNB-19): 73.3 µM (inactive)
GI50 (OVCAR-5): > 100 µM (inactive)
GI50 (KM12): 89.9 µM (inactive)
GI50 (SK-MEL-5): 57 µM (inactive)
GI50 (RPMI-8226): > 10 µM (inactive)
GI50 (OVCAR-8): 19.1 µM (inactive)
GI50 (SF-268): 28.6 µM (inactive)
GI50 (DMS-114): 20.2 µM (inactive)
GI50 (SK-MEL-28): 24.1 µM (inactive)
GI50 (NCI-H460): 17.2 µM (inactive)
GI50 (LXFL 529): 22.7 µM (inactive)
GI50 (HOP-18): 40.6 µM (inactive)
GI50 (SNB-75): 13.9 µM (inactive)
GI50 (TK-10): 25.3 µM (inactive)
GI50 (K562): 36.9 µM (inactive)
GI50 (CCRF-CEM): 17.6 µM (inactive)
GI50 (NCI-H226): 51.6 µM (inactive)
GI50 (SK-MEL-2): > 100 µM (inactive)
